System: acetic acid-induced writhing
Experiment: Acetic Acid Writhing Test in Mice
Type: in vivo, mouse
Conditions: Mus musculus, po, read-out: WRITH ED50
Source text: The blockade of writhing induced by the intraperitoneal injection of acetic acid is an established experimental animal model for the screening of antinociceptive drugs (drugs which prevent the appreciation or transmission of pain sensations).
The procedure for the Acetic Acid Writhing Test in Mice is set forth in Hendershot et al, J. Pharmacol. Exp. Therap. 125:237, (1959); Koster et al., Fed. Proc. 18:412, (1959); and international application PCT/US91/06705, filed 20 Sep. 1991, which are hereby incorporated by reference.
The results for this test are given below in the units of mg/kg which is also abbreviated in this specification as mpk. The results for this test are given as effective doses (ED50 's).

| SMILES | ED50 [mg/kg] |
| --- | --- |
| COc1ccc2c(c1)C(O)(c1ccccc1)C1CC3CCC(C21)N3C (stereo not drawn) [DDD] | > 30 |
| COc1ccc2c(c1)C(c1ccccc1)C1=C2C2CCC(C1)N2C (stereo not drawn) [EE] | > 30 |

System: TBZ-induced ptosis
Experiment: Effects on tetrabenazine (TBZ)-induced ptosis in mice
Type: in vivo, mouse
Conditions: Mus musculus, po
Source text: Clinically active antidepressant drugs are known to block TBZ-induced ptosis in mice (See Psychosomatic Medicine, Nodine and Moyer, Eds. Lea and Febiger, Philadelphia, 1962, pp 683-90, which is hereby incorporated by reference). Activity in this test is used to predict anti-depressant activity in man.
The procedure for the TBZ-Induced Ptosis Test in Mice is set forth in Psychosomatic Medicine, Nodine and Moyer, Eds. Lea and Febiger, which is hereby incorporated by reference and in PCT/US91/06705, filed 20 Sep. 1991, which is mentioned above.
(§1) The results for this test are given below as ED50 's in the units of mg/kg.
TBZ refers to the test of effects on tetrabenazine induced ptosis in mice, p.o.;

| SMILES | ED50 [mg/kg] |
| --- | --- |
| COc1ccc2c(c1)C(O)(c1ccccc1)C1CC3CCC(C21)N3C (stereo not drawn) [DDD] | > 30 |
| COc1ccc2c(c1)C(c1ccccc1)C1=C2C2CCC(C1)N2C (stereo not drawn) [EE] | > 30 |

System: muricidal (mouse-killing) behavior
Experiment: Effects on muricidal behavior in rats
Type: in vivo, rat
Conditions: Rattus norvegicus, read-out: MUR ED50
Source text: Blockade of muricidal (mouse-killing) behavior in rats is used as a measure of evaluating the anti-depressant activity of drugs, and the procedure for carrying out this test is set forth in Int. J. Neuro-pharmacal., 5, 405-411 (1966) are hereby incorporated by reference, and in PCT/US91/06705, filed 20 Sep. 1991, which is mentioned above.
as §1
MUR refers to the test on the effects on muricidal behavior in rats;

| SMILES | ED50 [mg/kg] |
| --- | --- |
| COc1ccc2c(c1)C(O)(c1ccccc1)C1CC3CCC(C21)N3C (stereo not drawn) [DDD] | 3.8 |

System: discrete trial avoidance behavior
Experiment: Conditioned avoidance suppression in rats
Type: in vivo, rat
Conditions: Rattus norvegicus, read-out: CAR minimum effective dose (MED)
Source text: See Ann. N.Y. Acad. Sci. 66,740 (1957) which is hereby incorporated by reference. The procedure for carrying out this test is set forth in Int. J. Neuro-pharmacal., 5, 405-411 (1966) which is hereby incorporated by reference and in PCT/US91/06705, filed 20 Sep. 1991, which is mentioned above.
The results for this test are given below as minimum effecive doses (MED)in the units of mg/kg.
As used herein, CAR refers to the conditioned avoidance suppression test in rats;

| SMILES | minimal effective dose [mg/kg] |
| --- | --- |
| COc1ccc2c(c1)C(O)(c1ccccc1)C1CC3CCC(C21)N3C (stereo not drawn) [DDD] | > 25 |
| COc1ccc2c(c1)C(c1ccccc1)C1=C2C2CCC(C1)N2C (stereo not drawn) [EE] | > 25 |

System: metrazole
Experiment: Anti-metrazole test in mice
Type: in vivo, mouse
Conditions: Mus musculus, read-out: MTZ ED50
Method: The anti-metrazole test in mice was carried out as described in Everett et al, J. Pharmacol. Exp. Therap. 81:402-407 (1944); which is hereby incorporated by reference.
The results for this test are given below as ED50's in the units of mg/kg.

| SMILES | ED50 [mg/kg] |
| --- | --- |
| COc1ccc2c(c1)C(O)(c1ccccc1)C1CC3CCC(C21)N3C (stereo not drawn) [DDD] | > 30 |
| COc1ccc2c(c1)C(c1ccccc1)C1=C2C2CCC(C1)N2C (stereo not drawn) [EE] | > 30 |

System: B16-F10 murine melanoma metastasis
Experiment: In vivo experimental metastasis
Set-up: species or system mouse (C57/black6)
Conditions: 250 mpk
Method: C57/black6 female mice (6-7 weeks old) were randomized before any treatment into groups of 5 mice per treatment. Compounds of the invention were prepared as a fine suspension in 25% β-cyclodextran and administered i.p. in a volume of 0.2 ml per animal. Two hours after drug (or vehicle) injection, 0.2 ml of DPBS containing 1×10^5 B-16 F10 murine melanoma cells were injected i.v. into the tail vein. After 14 days, animals were sacrificed and lungs were removed. Metastatic lung colonies were counted by visual inspection.
*Pretreatment Time is the time between i.p. drug injection and i.v. tumor

| SMILES | effectiveness as positive control |
| --- | --- |
| O=P1(N(CCCl)CCCl)NCCCO1 (stereo not drawn) [Cytoxan, reference compound] | showed similar effectiveness |

Same assay, conditions: 250 mpk, pretreatment time 30 min

| SMILES | % Inhibition of lung metastasis [%] | Number of Lung Melanoma Colonies |
| --- | --- | --- |
| O=P1(N(CCCl)CCCl)NCCCO1 (stereo not drawn) [Cytoxan, reference compound] | 77.8 | 17.6 ± 4.2 |

Source: patent publication US5461057A, “Hydro-ethano-indeno-pyridines” (priority 1994, dated 1995)
